Experimental data reported in ChEMBL document CHEMBL1201862, “PubChem BioAssay data set” (2004).
The source made the active and inactive calls.

Tests used:
[1] = target: T1, Polyadenylate-binding protein 1 (Homo sapiens, UniProt P11940); test: MLLE binding blockers, Cy5 peptide tracer – biochemical, fluorescence polarization, Cy5-PAM2 peptide, secondary, miRNA deadenylation inhibitor project, dose response (AID 602260); assay type: functional; settings: read-out: IC50_Mean
[2] = target: T1, Polyadenylate-binding protein 1; test: MLLE domain peptide-binding blockers, IC50 – biochemical, fluorescence polarization, FITC-PAM2 peptide, dose response (AID 602259); assay type: functional; settings: read-out: IC50_Mean
Nonstructural protein 1 = Nonstructural protein 1 (Influenza A virus, UniProt Q194T2); assay type: functional, Influenza A virus (A/California/07/2009(H1N1))
Nonstructural protein 1, sequence (Q194T2 whole entry): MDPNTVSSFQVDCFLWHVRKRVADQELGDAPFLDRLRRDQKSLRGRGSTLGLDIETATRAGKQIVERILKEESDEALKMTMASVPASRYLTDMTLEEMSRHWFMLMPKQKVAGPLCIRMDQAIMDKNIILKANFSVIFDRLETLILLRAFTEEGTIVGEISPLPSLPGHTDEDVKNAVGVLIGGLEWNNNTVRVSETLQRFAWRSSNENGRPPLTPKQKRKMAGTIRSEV

cells [3] = assay type: functional
cells [4] = assay type: functional, cell-based
cells [5] = assay type: functional, cell-based; remark: listed apart in the source
[6] = target: T2, Short transient receptor potential channel 4 (Mus musculus, UniProt Q9QUQ5); test: block of DAMGO-driven TRPC4 calcium entry – cell-based, HEK293 TRPC4/mu-opioid, Fluo-4 calcium, dose response (AID 434942); assay type: functional;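 also: potency of inhibitors blocking the TRPC4 calcium response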
T2 sequence (Q9QUQ5 whole entry): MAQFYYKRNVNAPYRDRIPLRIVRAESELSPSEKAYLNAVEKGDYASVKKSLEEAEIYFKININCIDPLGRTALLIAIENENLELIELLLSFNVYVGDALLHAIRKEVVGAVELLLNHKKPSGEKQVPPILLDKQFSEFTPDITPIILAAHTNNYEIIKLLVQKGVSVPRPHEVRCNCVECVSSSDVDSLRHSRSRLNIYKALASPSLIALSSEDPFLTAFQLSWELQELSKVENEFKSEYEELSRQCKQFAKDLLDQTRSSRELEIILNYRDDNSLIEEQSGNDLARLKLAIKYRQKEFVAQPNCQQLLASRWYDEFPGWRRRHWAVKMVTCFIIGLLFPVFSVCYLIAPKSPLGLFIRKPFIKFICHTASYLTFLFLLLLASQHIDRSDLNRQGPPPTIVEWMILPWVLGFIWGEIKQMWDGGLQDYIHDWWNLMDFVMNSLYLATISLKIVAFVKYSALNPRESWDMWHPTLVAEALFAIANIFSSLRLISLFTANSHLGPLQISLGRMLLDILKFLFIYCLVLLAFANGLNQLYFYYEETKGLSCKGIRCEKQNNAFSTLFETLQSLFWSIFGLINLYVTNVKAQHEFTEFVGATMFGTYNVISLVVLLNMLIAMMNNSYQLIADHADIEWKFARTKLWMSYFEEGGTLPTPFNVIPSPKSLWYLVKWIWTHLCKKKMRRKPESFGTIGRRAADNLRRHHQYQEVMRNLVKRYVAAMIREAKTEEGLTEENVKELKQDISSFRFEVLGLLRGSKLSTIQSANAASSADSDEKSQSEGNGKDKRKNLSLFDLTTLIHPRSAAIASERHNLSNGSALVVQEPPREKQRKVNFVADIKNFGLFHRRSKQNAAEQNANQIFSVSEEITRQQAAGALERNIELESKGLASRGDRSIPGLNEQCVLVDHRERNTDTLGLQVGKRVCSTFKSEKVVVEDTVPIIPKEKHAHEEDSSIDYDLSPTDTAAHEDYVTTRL

[7] = viability of uninfected HEp-2 cells – cell-based, HTS, cytotoxicity control for RSV inhibitor project, dose response (AID 2410); assay type: functional; settings: human respiratory syncytial virus
[8] = non-specific 3'UTR reporter inhibition in Clone20-Shn3RL – cell-based, Renilla luciferase, cherry-picked, counter-screen for Shn3 inhibitor project, dose response (AID 624133); assay type: functional
[9] = target: T3, Rac GTPase-activating protein 1 (Homo sapiens, UniProt Q9H0H5); test: blockers of MgcRacGAP-driven Rac1 GTP hydrolysis – biochemical, ADP Hunter fluorescence, primary and confirmatory, confirmation (AID 624330); assay type: functional
T3 sequence (Q9H0H5 whole entry): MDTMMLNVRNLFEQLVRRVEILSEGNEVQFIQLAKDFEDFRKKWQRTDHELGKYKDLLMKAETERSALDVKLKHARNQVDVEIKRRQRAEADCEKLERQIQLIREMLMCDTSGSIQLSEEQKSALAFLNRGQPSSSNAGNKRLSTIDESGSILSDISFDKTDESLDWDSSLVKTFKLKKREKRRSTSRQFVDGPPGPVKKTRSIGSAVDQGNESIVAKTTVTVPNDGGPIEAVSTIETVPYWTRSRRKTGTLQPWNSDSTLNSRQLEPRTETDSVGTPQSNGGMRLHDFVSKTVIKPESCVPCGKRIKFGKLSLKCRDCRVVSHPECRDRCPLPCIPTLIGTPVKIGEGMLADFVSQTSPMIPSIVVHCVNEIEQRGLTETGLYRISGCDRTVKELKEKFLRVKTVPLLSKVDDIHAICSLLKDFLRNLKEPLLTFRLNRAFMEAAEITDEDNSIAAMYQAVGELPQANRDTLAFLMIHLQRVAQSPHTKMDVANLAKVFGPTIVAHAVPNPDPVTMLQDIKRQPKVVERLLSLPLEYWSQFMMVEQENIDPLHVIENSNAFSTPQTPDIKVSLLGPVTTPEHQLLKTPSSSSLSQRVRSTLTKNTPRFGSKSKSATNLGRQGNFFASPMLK

[10] = Luminescence Cell-Based Dose Response HTS to Identify Inhibitors of 5'UTR Stem-Loop Driven Prion Protein mRNA Translation in H4 Neuroglioblastoma Cells. [Related pubchem assays: 1827 (Project Summary), 1813 (Primary HTS)]; assay type: functional

T1 sequence (P11940 whole entry, the tested form may be a part): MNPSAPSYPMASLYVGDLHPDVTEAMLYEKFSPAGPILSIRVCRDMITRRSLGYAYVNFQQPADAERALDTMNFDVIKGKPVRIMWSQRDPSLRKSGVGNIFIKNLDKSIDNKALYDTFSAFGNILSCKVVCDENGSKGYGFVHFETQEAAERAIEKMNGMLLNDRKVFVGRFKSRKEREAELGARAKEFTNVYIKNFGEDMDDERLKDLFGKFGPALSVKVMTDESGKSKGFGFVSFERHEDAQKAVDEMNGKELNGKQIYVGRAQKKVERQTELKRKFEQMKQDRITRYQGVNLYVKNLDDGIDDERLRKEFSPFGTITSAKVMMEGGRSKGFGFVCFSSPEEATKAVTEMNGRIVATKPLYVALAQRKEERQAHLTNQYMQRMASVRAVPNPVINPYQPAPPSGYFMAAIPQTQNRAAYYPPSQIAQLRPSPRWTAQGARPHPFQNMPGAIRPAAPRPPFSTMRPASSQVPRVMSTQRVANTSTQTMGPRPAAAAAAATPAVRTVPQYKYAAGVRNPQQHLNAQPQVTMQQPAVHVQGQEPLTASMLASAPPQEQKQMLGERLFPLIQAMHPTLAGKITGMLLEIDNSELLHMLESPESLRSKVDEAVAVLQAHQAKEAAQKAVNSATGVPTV

Cn1nnc(NC(=S)NC(=O)c2cccc3c(Br)cccc23)n1
IC50 [1]: > 66 µM (inactive) | IC50 [2]: > 66 µM (inactive)

COc1ccc(N2CCN(CCCNC(=O)c3cc4sccc4n3C)CC2)cc1
IC50 (Nonstructural protein 1): 39.4 µM (active)

O=c1c(=Nc2ccccc2O)c(=O)c2ccccc12
IC50 (cells [3]): 3.81 µM (active)

CCC(SCC(=O)OC)C(=O)Nc1nnc(C(C)C)s1 (stereo not given)
IC50 [1]: > 66 µM (inactive) | IC50 [2]: > 66 µM (inactive)

CCOC(=O)C1CCN(C(=O)COC(=O)CSc2ccc([N+](=O)[O-])cc2)CC1
IC50 [1]: > 66 µM (inactive) | IC50 [2]: > 66 µM (inactive)

CCOc1ccc(NC(=S)NC(=O)c2c(Cl)c(C)nn2C)c([N+](=O)[O-])c1
IC50 [1]: > 66 µM (inactive) | IC50 [2]: > 66 µM (inactive)

Cc1cc(C)c(C(=O)N2CCCC(N3CCN(c4cccc(C(F)(F)F)c4)CC3)C2)o1 (stereo not given)
EC50 (cells [4]): > 350 µM (not active) | EC50 (cells [5]): > 350 µM (not active)

CCOc1ccc(CN2CCN(C(=O)c3ccccc3)CC2)cc1
EC50 [6]: 6.68 µM (active)

CCOc1ccc2c(c1)c1nnc(SCC3CCCO3)nc1n2C (stereo not given)
EC50 (cells [4]): > 350 µM (not active) | EC50 (cells [5]): 52.4 µM (active) | CC50 [7]: > 50 µM (active)

O=C1/C(=C\c2ccc(-c3ccccc3[N+](=O)[O-])o2)C(c2ccccc2)=NN1c1ccccc1
IC50 (Nonstructural protein 1): 21.3 µM (active)

CC(C)(C)N(Cc1ccccc1)C(=O)COC(=O)CCc1c[nH]c2ccccc12
AC50 [8]: 25.9 µM (active)

COc1cc2ccccc2cc1C(=O)NC(=S)Nc1cccc(C(=O)O)c1
IC50 [1]: > 66 µM (inactive) | IC50 [2]: > 66 µM (inactive)

Cc1cccc(N(Cc2ccccc2)C(=O)CSC(C)C(=O)Nc2cc(C)on2)c1 (stereo not given)
EC50 [6]: 2.11 µM (active)

O=C(NCCCN1CCOCC1)c1ccc(NC(=O)C2COc3ccccc3O2)cc1 (stereo not given)
EC50 [6]: 15 µM (active)

CC(C)n1c(NCc2c[nH]c3ccccc23)nc2ccccc21
EC50 [6]: 1.68 µM (active)

COCCN=C(S)N(CCO)Cc1cc2cc3c(cc2nc1O)OCCO3
IC50 [1]: > 66 µM (inactive) | IC50 [2]: > 66 µM (inactive)

OC(COc1ccccc1)CN1C2=NCCCN2c2ccccc21 (stereo not given)
EC50 [6]: 13.3 µM (active)

Cc1cccc(C(=O)Nc2nnc(-c3cccnc3)o2)c1
IC50 (cells [3]): 9.52 µM (active)

CC1CCCN(C(=O)c2ccc3c(c2NCCO)C(=O)c2ccccc2C3=O)C1 (stereo not given)
IC50 (Nonstructural protein 1): 22 µM (active)

O=C(Cc1ccc(F)cc1)N1CCN=C1SCc1ccc([N+](=O)[O-])cc1
IC50 [1]: > 66 µM (inactive) | IC50 [2]: > 66 µM (inactive)

Cc1ccc2cc(CN(CCN3CCOCC3)C(=O)NCc3ccccc3)c(O)nc2c1C
EC50 [6]: 4.22 µM (active)

O=C(COC(=O)c1ccccc1Cl)NCCC1=CCCCC1
IC50 (cells [3]): 29.9 µM (active)

CCn1c(N2CCC(Cc3ccccc3)CC2)nc2c1c(=O)[nH]c(=O)n2C
EC50 (cells [4]): > 350 µM (not active) | EC50 (cells [5]): > 350 µM (not active)

CCCC(C)NC(=O)CN1C(=O)NC2(CCc3ccccc32)C1=O (stereo not given)
EC50 (cells [4]): > 350 µM (not active) | EC50 (cells [5]): > 350 µM (not active)

O=C(NC(=S)N1CCCC1)c1ccccc1F
IC50 [1]: > 66 µM (inactive) | IC50 [2]: > 66 µM (inactive)

CC(C)C1=Nc2cccc3cccc(c23)N1
IC50 [9]: 26.3 µM (active) | EC50 [6]: 2.37 µM (active)

CC1CN=C(/C=C(\O)c2ccc(Br)cc2)C(=O)N1 (stereo not given)
EC50 (cells [4]): > 350 µM (not active) | EC50 [10]: 11.6 µM (inconclusive) | EC50 (cells [5]): 35.6 µM (active)

CN(C)/C=N/C(=O)c1cn(-c2ccc(F)cc2)c(=O)c2ccccc12
EC50 (cells [4]): > 350 µM (not active) | EC50 (cells [5]): > 350 µM (not active)
